What was measured:
Type in all cases: cell-based, human
[1] = tested on: eGFP-negative (silenced) AAVS1/TetO7 cells; assay: 5-Aza treatment of eGFP-silenced AAVS1/TetO7 cells (flow cytometry); settings: 7 days
Experimental: In order to understand if DNA methylation was necessary to maintain the repressive state induced by tetR:D3A, the eGFP-cells from the doxy-conditions in FIG. 2D were treated with either 5-Aza-2′-deoxycytidine (5-Aza) or vehicle (i.e. Dimethyl Sulfoxide, DMSO) and then analysed by flow cytometry to measure eGFP expression. 5-Aza is a cytosine analogue that after becoming incorporated into DNA is recognised by DNA methyltransferase as a substrate, establishing a covalent bond that, contrary to cytosine, is not resolved, thus blocking DNMT activity (Issa, J. P. et al. (2005) Nat. Rev. Drug Discov. Suppl. S6-7).
To test activity of the ATRs, the reporter cell lines were transduced with the ATR-expressing Bid.LV at a MOI of 10, or transfected with plasmids or in vitro transcribed mRNAs expressing the ATRs (4D-Nucleofector™ System; Lonza) according to the manufacturer's instruction for K-562, U937 and NIH/3T3, or using the pulse program EW-113 and the SF solution for B-lymphoblastoid cells. […] The AZA-containing media was replaced every day, and the cells were analysed by flow cytometry at day 4 and 7 after treatment. […] The IFN-γ-containing media was replaced every day, and the cells were analysed by flow cytometry at day 2 and 4 after treatment. […] Two weeks after plating, colonies were counted and identified according to morphological criteria and analysed by flow cytometry.

[2] = tested on: B2M gene promoter region, HEK-293T cells; assay: B2M silencing in HEK-293T cells (flow cytometry); settings: day 7 upon AZA treatment
Excerpt: In order to assess if the results obtained with the eGFP reporter system could also be translated to an endogenous gene embedded in its natural epigenetic context, we generated custom-made TALEs targeting the promoter region of the B2-Microglobulin (B2M) gene (the amino acid sequences of these TALEs and the nucleotide sequences of their corresponding binding sites are listed in Table 3), and fused these TALEs to the KRAB, DNMT3A and DNMT3L effector domains (for a schematic of the system refer to FIG. 13A). The spacer length between the first and the second, or between the second and the third TALE is 1 or 20 bp, respectively. We then co-transfected HEK-293T cells with the plasmids encoding for these novel ATRs and analysed the cells by flow cytometry for B2M expression.
Remarkably, up to 80% of the cells treated with all the ATRs permanently lost B2M surface expression. In parallel experiments, we sorted the B2M-negative and the B2M-positive cells, and analysed them for surface expression of MHC-I molecules, which require B2M to be presented on the plasma membrane. […] Then we assessed if the three effector domains were capable of inducing permanent epigenetic silencing also when targeted to the B2M gene via the RNA-guided CRISPR/Cas9 system. […]
We then assessed if these findings also held true with ATRs based on custom-made DNA binding domains. […]

B2M gene, HEK-293T cells = assay: B2M, OAS1 and B2M locus gene expression in HEK-293T cells (RT-qPCR)
Excerpt: Remarkably, up to 80% of the cells treated with all the ATRs permanently lost B2M surface expression. In parallel experiments, we sorted the B2M-negative and the B2M-positive cells, and analysed them for surface expression of MHC-I molecules, which require B2M to be presented on the plasma membrane. […] Then we assessed if the three effector domains were capable of inducing permanent epigenetic silencing also when targeted to the B2M gene via the RNA-guided CRISPR/Cas9 system. To this aim, we fused in frame to a catalytically dead Cas9 (D10A+H840A; dCas9; amino acid sequence listed in Table 4) the KRAB, the DNMT3A or the DNMT3L effector domains (FIG. 13E; top drawings), and designed 11 guide RNAs (gRNAs; nucleotide sequences listed in Table 4) targeting the promoter region of the B2M gene (FIG. 13E; bottom schematic, arrows indicate the location of the CRISPR/dCas9 target sites). […] We then assessed if B2M silencing was resistant to IFN-γ treatment, a potent inducer of B2M expression (Vraetz, T. et al. (1999) Nephrol. Dial. Transplant. 14:2137-43; Gobin, S. J. et al. (2003) Blood 101:3058-64). […]
In order to assess if silencing induced by our ATRs was associated with the deposition of repressive epigenetic marks on the targeted gene, we analysed the epigenetic state of the B2M gene in wild-type and silenced cells. […]

Compound | eGFP expression after 5-Aza treatment ([1]; eGFP- cells silenced with tetR:D3A, 1 μM) | eGFP expression after 5-Aza treatment ([1]; eGFP-negative sorted cells from tetR:K/tetR:D3A conditions) | B2M expression after AZA treatment of previously silenced cells [2] | B2M expression upon IFN-γ treatment (transcriptional and protein level) (B2M gene, HEK-293T cells; 500 U/mL IFN-γ, wild-type or sorted B2M-negative cells) | upregulation of OAS1 gene expression (B2M gene, HEK-293T cells; IFN-γ treatment, all cell types tested (wild-type and B2M-negative)) [fold]
Nc1ncn([C@H]2C[C@H](O)[C@@H](CO)O2)c(=O)n1 [5-Aza, 5-Aza-2′-deoxycytidine] | full reactivation of eGFP expression | completely reactivated eGFP expression | re-expression of the B2M gene | – | –
IFN-γ: a potent inducer of B2M expression | – | – | – | significantly upregulated B2M expression | > 100
